# Key:
# Format in all cases: cell-based, human
# [1] = system: Resting healthy PBMC; assay: MTT growth inhibition, 72 h; settings: mean ± SE
# [2] = system: PHA stimulated healthy PBMC; assay: MTT growth inhibition, 72 h; settings: mean ± SE
# [3] = system: CD19+ cells from peripheral blood of healthy donors; assay: MTT viability of healthy cells, 24 h
# Method: (§1) CP growth inhibitory activity was measured on primary cultures derived from pediatric patients affected by B-acute lymphoblastic leukemia. […] In particular, in resting and in PHA-stimulated PBMC, and in CD19^+ cells GI50 was higher than 10 μM confirming that CP preferentially affects leukemia cells.
# (§2) FIGURE 6 CP effects on B-ALL primary cultures (A) Blast cells from six B-ALL patients were incubated for 24 h with different concentrations of CP. For the sake of comparison CD19^+ cells from peripheral blood of healthy donors, and PBMC were also incubated with CP in the presence or absence of PHA. Cell viability were assayed by MTT analysis. Data are represented as mean ± S.E.M of four independent experiments. (B) Bone marrow cells from healthy donors were treated for 24 h with CP (2.5 μM and 5 μM). Cell viability was evaluated on the whole population by flow cytometry after staining the cells with Annexin-V-FITC and PI. are represented as mean ± S.E.M of 3 independent experiments. (C) Western Blot analysis of GRP78 and CHOP expression, PARP cleavage and caspase-3 activation, on protein extracts of blast cells from B-ALL patients treated with CP (2.5 μM) for 12 h.
# (§3) Peripheral blood mononuclear cells (PBMC) and bone marrow cells from healthy donors were obtained by separation on Lymphoprep (Fresenius KABI, Norge AS) gradient. After extensive washing, cells were resuspended (1.0 × 10^6 cells/ml) in RPMI1640 with 10% fetal bovine serum and incubated overnight in 96-well tissue culture microtiter plate. For cytotoxicity evaluations in proliferating PBMC cultures, non-adherent cells were resuspended in growth medium, containing 2.5 μg/ml phytohematoglutinin (PHA) (Irvine Scientific). To isolate B-lymphocyte, PBMC obtained by Lymphoprep (Fresenius KABI, Norge AS) separation were labeled with anti-CD19-APC (BD Biosciences, Italy) and collected by cell sorting.
# [4] = system: PHA-stimulated PBMC; assay: MTT viability of healthy cells, 24 h
# Method: as §1, §2, §3
# [5] = system: resting PBMC; assay: MTT viability of healthy cells, 24 h
# Method: as §1, §2, §3
# [6] = system: caspase-9, caspase-3 and -7; assay: Western blot, caspase-9, cleaved caspase-7, caspase-3 and PARP; settings: SEM and RS4;11, CP 2.5 μM
# Method: FIGURE 2 CP induces caspase-dependent apoptosis without mitochondria involvement (A) Assessment of mitochondrial membrane potential (ΔΨmt) after treatment of RS4;11 and SEM cells with CP (2.5 μM) for the indicated times. Cells were stained with the fluorescent probe JC-1. Data are represented as mean ± S.E.M. of three independent experiments. (B) Flow cytometric analysis of RS4;11 and SEM cells treated with CP (2.5 μM) for 24 h showing cytochrome c labeled with a monoclonal antibody conjugated to FITC. Representative image of three experiments with similar results. (C) Cells were incubated with CP 2.5 μM and 5 μM in the presence or absence of the pan-caspase inhibitor z-VAD.fmk (100 μM). Cell viability was determined after 48 h by MTT assay. Data are represented as mean ± S.E.M. of three independent experiments performed in triplicate. *p<0.01 vs CP alone. (D) Western blot analysis of Bcl-2, cleaved caspase-12, caspase-9, cleaved caspase-7, caspase-3 and PARP after treatment of SEM and RS4;11 cells with CP (2.5 μM) for the indicated times. To confirm equal protein loading, each membrane was stripped and reprobed with anti-β-actin antibody. […]
# Cells were treated with CP and, after different times, were collected, centrifuged and washed with ice cold phosphate-buffered saline (PBS). […] The protein concentration in the supernatant was determined using the BCA protein assay (Pierce, Italy). […]
# [7] = system: ubiquitinated proteins; assay: Western blot, Ubiquitin accumulation
# Method: FIGURE 3 CP treatment affects Ubiquitin Proteasome System (UPS) 26S proteasome (100 μg) semipurified from (A) SEM and (B) RS4;11 cells was incubated for 60 min at 37 °C with CP at different concentrations. Chymotrypsin (CT), trypsin (T) and peptidyl glutamyl peptide hydrolyzing (PGPH) catalytic activity were measured fluorimetrically (excitation 370, nm emission 460) by following the release of free AMC from synthetic substrates N-Suc-Leu-Leu-Val-Tyr-AMC, Boc-Gln-Ala-Arg-AMC and Z-Leu-Leu-Glu-AMC, specific for CT, T and PGPH activity, respectively. (C) Cells were incubated with CP 2.5 μM for the indicated times and then western blot analyses were performed to evaluate Ubiquitin accumulation.
# In normal conditions, misfolded proteins in the ER are driven to the cytoplasm, where upon ubiquitination, are degraded by the proteasome system. […] To assess if CP worked as other proteasome inhibitors, we evaluated the accumulation of ubiquitin after 1.5, 3, and 6 h of treatment.
# (§4) Cells were treated with CP and, after different times, were collected, centrifuged and washed with ice cold phosphate-buffered saline (PBS). The pellet was then resuspended in lysis buffer as described. The protein concentration in the supernatant was determined using the BCA protein assay (Pierce, Italy). […]
# [8] = system: GRP78, CHOP, PARP, caspase-3; assay: Western blot on blast cells from B-ALL patients; settings: CP 2.5 μM, 12 h
# Method: as §2
# as §4, with “Italy). Equal amounts of protein (10 μg) were resolved using SDS-PAGE gel electrophoresis (Criterion precast Tris-HCl gel, BioRad, Italy) and transferred to PVDF Hybond-p membranes (GE Healthcare, Italy).” for “Italy).”
compound,measurement,setting,value
"F[P-](F)(F)(F)(F)F.OCP(CO)CO.OCP(CO)CO.OCP(CO)CO.OCP(CO)CO.[Cu+] [CP, [Cu(thp)4][PF6]]",GI50,[1],22.7 ± 2.9 µM
same,GI50,[2],16.9 ± 1.6 µM
same,GI50,[3],> 10 µM
same,GI50,[4],> 10 µM
same,GI50,[5],> 10 µM
same,onset of caspase-9 activation and cleavage of caspase-3 and -7,[6],≥ 6 h
same,onset of accumulation of ubiquitinated proteins,"[7]; RS4;11, CP 2.5 μM",≥ 3 h
same,onset of accumulation of ubiquitinated proteins,"[7]; SEM, CP 2.5 μM",≥ 1.5 h
same,caspase-3 activation and PARP cleavage,[8]; patient cells,induced caspase-3 activation and PARP cleavage
same,GRP-78 and CHOP expression,[8]; primary cultures,significant increase in the expression of both these markers
